Assay results as given in publication PMC4988493 (Nature, 2015).

Biological target: UbiX (Pseudomonas aeruginosa, UniProt Q9HX08)
Assay: crystal structure
Assay type: binding
Settings: complex with DMAP

UbiX, sequence (Q9HX08 whole entry): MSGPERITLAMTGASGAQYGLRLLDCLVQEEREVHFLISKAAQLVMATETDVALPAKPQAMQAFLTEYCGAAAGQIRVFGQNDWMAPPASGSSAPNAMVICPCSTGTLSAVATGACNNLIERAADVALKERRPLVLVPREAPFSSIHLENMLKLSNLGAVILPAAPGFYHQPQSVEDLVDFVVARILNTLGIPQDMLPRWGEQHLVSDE

Cc1cc2nc3c(=O)[nH]c(=O)nc-3n(C[C@H](O)[C@H](O)[C@H](O)COP(=O)(O)O)c2cc1C [FMN]
crystal structure: crystal structure of P. aeruginosa UbiX in complex with oxidized FMN and DMAP
